Our source for the IC90 values is US12054494B2, “Compound with anticancer activity” (KYOWA KIRIN CO., LTD., priority 2018, dated 2024).

The assay relates to SU-DHL-4 cells. As to the kind of experiment: Inhibitory effect on cell viability (Cell Counting Kit-8). It counts as cell-based. The following applies: Homo sapiens, 72 hours culture with test compound, concentration showing 90% inhibition rate of cell viability. In outline:
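SU-DHL-4 cells (2000/well, RPMI1640 with 10% FBS) precultured 18-25 h, then exposed to a 9-step compound dilution series (0.1% DMSO final) for 72 h at 37° C. Viability by CCK-8 absorbance at 450 nm after 2-3 h; IC90 computed from inhibition rate relative to untreated and cell-free wells.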
On the technique in general: Formazan colour is commonly taken as a measure of viable cells.

Broadly, the IC90 is the concentration needed for an effect of 90%. Low readings indicate greater potency, high ones weaker potency. Regarding `CCC(=O)N1c2ccccc2[C@H](Nc2ccc(-c3cnn(CCNC(=O)c4ccc(C5=NCc6nnc(C)n6-c6sc(C)c(C)c65)cc4)c3)cc2)C[C@@H]1C` [Compound 14b, N-(2-(4-(4-(((2S,4R)-2-Methyl-1-propionyl-1,2,3,4-tetrahydroquinolin-4-yl)amino)phenyl)-1H-pyrazol-1-yl)ethyl)-4-(2,3,9-trimethyl-6H-thieno[3,2-f][1,2,4]triazolo[4,3-a][1,4]diazepin-4-yl)benzamide], the 90% effect level (IC90) was put at 0.12 nM.
Under `CCC(=O)N1c2ccccc2[C@H](Nc2ccc(NC(=O)COCC(=O)Nc3ccc(C4=NCc5nnc(C)n5-c5sc(C)c(C)c54)cc3)cc2)C[C@@H]1C` [Compound 14d, N-(4-(((2S,4R)-2-Methyl-1-propionyl-1,2,3,4-tetrahydroquinolin-4-yl)amino)phenyl)-2-(2-oxo-2-((4-(2,3,9-trimethyl-6H-thieno[3,2-f][1,2,4]triazolo[4,3-a][1,4]diazepin-4-yl)phenyl)amino)ethoxy)acetamide] stands 0.16 nM; under `Cc1sc2c(c1C)C(c1ccc(NC(=O)C#CCNC(=O)c3ccc(C4=NCc5nnc(C)n5-c5sc(C)c(C)c54)cc3)cc1)=NCc1nnc(C)n1-2` [Compound 14e, N-(4-Oxo-4-((4-(2,3,9-trimethyl-6H-thieno[3,2-f][1,2,4]triazolo[4,3-a][1,4]diazepin-4-yl)phenyl)amino)but-2-yn-1-yl)-4-(2,3,9-trimethyl-6H-thieno[3,2-f][1,2,4]triazolo[4,3-a][1,4]diazepin-4-yl)benzamide], 0.26 nM.
Under `CCC(=O)N1c2ccccc2[C@H](Nc2ccc(NC(=O)CNC(=O)Nc3ccc(C4=NCc5nnc(C)n5-c5sc(C)c(C)c54)cc3)cc2)C[C@@H]1C` [Compound 14f, N-(4-(((2S,4R)-2-Methyl-1-propionyl-1,2,3,4-tetrahydroquinolin-4-yl)amino)phenyl)-2-(3-(4-(2,3,9-trimethyl-6H-thieno[3,2-f][1,2,4]triazolo[4,3-a][1,4]diazepin-4-yl)phenyl)ureido)acetamide] stands 0.31 nM; under `CCC(=O)N1c2ccccc2[C@H](Nc2ccc(C(=O)NCC#CC(=O)Nc3ccc(C4=NCc5nnc(C)n5-c5sc(C)c(C)c54)cc3)cc2)C[C@@H]1C` [Compound 14g, 4-(((2S,4R)-2-Methyl-1-propionyl-1,2,3,4-tetrahydroquinolin-4-yl)amino)-N-(4-oxo-4-((4-(2,3,9-trimethyl-6H-thieno[3,2-f][1,2,4]triazolo[4,3-a][1,4]diazepin-4-yl)phenyl)amino)but-2-yn-1-yl)benzamide], 0.03 nM.
In the case of `CCC(=O)N1c2ccccc2[C@H](Nc2ccc(NC(=O)NCC(=O)Nc3ccc(C4=NCc5nnc(C)n5-c5sc(C)c(C)c54)cc3)cc2)C[C@@H]1C` [Compound 14h, 2-(3-(4-(((2S,4R)-2-Methyl-1-propionyl-1,2,3,4-tetrahydroquinolin-4-yl)amino)phenyl)ureido)-N-(4-(2,3,9-trimethyl-6H-thieno[3,2-f][1,2,4]triazolo[4,3-a][1,4]diazepin-4-yl)phenyl)acetamide] it was 0.34 nM; in that of `CCC(=O)N1c2ccccc2[C@H](Nc2ccc(NC(=O)C#CCNC(=O)c3ccc(C4=NCc5nnc(C)n5-c5sc(C)c(C)c54)cc3)cc2)C[C@@H]1C` [Compound 14i, N-(4-((4-(((2S,4R)-2-Methyl-1-propionyl-1,2,3,4-tetrahydroquinolin-4-yl)amino)phenyl)amino)-4-oxobut-2-yn-1-yl)-4-(2,3,9-trimethyl-6H-thieno[3,2-f][1,2,4]triazolo[4,3-a][1,4]diazepin-4-yl)benzamide], 0.03 nM; in that of `CCC(=O)N1c2ccccc2[C@H](Nc2ccc(C(=O)NCc3ccc(-c4ccc(C5=NCc6nnc(C)n6-c6sc(C)c(C)c65)cc4)s3)cc2)C[C@@H]1C` [Compound 14j, 4-(((2S,4R)-2-Methyl-1-propionyl-1,2,3,4-tetrahydroquinolin-4-yl)amino)-N-((5-(4-(2,3,9-trimethyl-6H-thieno[3,2-f][1,2,4]triazolo[4,3-a][1,4]diazepin-4-yl)phenyl)thiophen-2-yl)methyl)benzamide], 0.74 nM.
